Measurements reported in PubChem BioAssay AID2060885 (Molecular Pharmacology Branch, DTP, NCI, 2025).

Tested on: NCI-H23 complex spheroids with HUVEC/MSC, viability
Assay: Anticancer human tumor NCI-H23 cell line growth inhibition [RAS];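 further: spheroids exposed to compound for 7 days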;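 on viability, T/C: 100% = DMSO vehicle control viability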
Conditions: for IC50: curve of first compound; for viability, T/C: stronger effect = lower value
Text: RAS pathway inhibitors in Combinations in Complex Spheroids
A high-throughput screen of multi-cell type tumor spheroids was designed to identify active combinations of RAS pathway inhibitors and targeted small molecules. Complex spheroids include a stromal component modeled by human endothelial cells (HUVEC) and fibroblasts modeled by human mesenchymal stem cells (MSCs). The concentration ranges selected for each drug and investigational agent were based upon clinically achievable concentrations if the clinical Cmax of the agent was known.
Compounds. The drugs and investigational agents: abemaciclib (NSC768073), cobimetinib (NSC768068), divarasib (GDC6063, NSC841802), docetaxel (NSC628503), GDC-1971 (RLY-1971, NSC841576), gemcitabine (NSC613327), inavolisib (NSC800729), ipatasertib (NSC767898), KB-0742 (NSC834161), MRTX-1133 (NSC836407), osimertinib (NSC779217), RMC-4630 (NSC839698), RMC-6236 (NSC851965), RMC-6291 (NSC852671), Ro-3306 (NSC812927), sapanisertib (NSC764658), SN-38 (NSC673596), staurosporine (NSC755774), SY5609 (NSC837396), and tovorafenib (DAY101, NSC766906), were obtained from the National Cancer Institute (NCI) Developmental Therapeutics Program Chemical Repository. The FDA-approved anticancer drug set is available from the NCI Developmental Therapeutics Program. […] The stock solutions were prepared in dimethyl sulfoxide (DMSO, Sigma-Aldrich, St. Louis, MO, cat. D2650) at 800-fold the tested concentration and stored at -70 degrees C prior to their use. All drugs and investigational agents were tested over a range starting from a high concentration at or near the clinical Cmax and decreasing in half-log increments. If the clinical Cmax for an agent had not been determined, the highest concentration tested was 10 microM.
Cell Culture. All cells were maintained in an incubator at 37 degrees C and 5% CO2 with 95% humidity. The PDC lines were cultured according to standard operating procedures established by the NCI PDMR. All PDCs were thawed and cultured in Matrigel-coated flasks prepared with a working solution of 1X Ham's F-12 nutrient mix, without supplementation (Invitrogen, Waltham, MA, cat. 11765054), 100 U/mL penicillin-streptomycin (Invitrogen, cat. 15140122), and 2.5% Matrigel (Corning Inc., Corning, NY, cat. 354248) for the first three passages. The 362531-283-R-J2-PDC and 782815-120-R-J1-PDC lines were cultured in 6C/Colon 1B media, which includes advanced DMEM/F-12 (Thermo Fisher Scientific, cat. 12634028), 10 mM HEPES (Thermo Fisher Scientific, cat. 15630080), 1X GlutaMAX supplement (Thermo Fisher Scientific, cat. 35050061), 0.1 mg/mL primocin (InvivoGen, San Diego, CA, cat. ant-pm-2), 10% defined fetal bovine serum, heat inactivated (HyClone Laboratories Inc., Logan, UT, cat. SH30070.03HI), 50% L-WRN conditioned media (ATCC, cat. CRL-3276), 1.25 mM N-Acetyl-L-cysteine (Sigma-Aldrich, cat. A9165), 10 mM nicotinamide (Sigma-Aldrich, cat. N0636), 1X B-27 supplement (Thermo Fisher Scientific, cat. 17504044), 1X N-2 supplement (Thermo Fisher Scientific, cat. 17502048), 50 ng/mL human EGF (Thermo Fisher Scientific, cat. PHG0311), and 10 microM Y-27632 dihydrochloride (Tocris Bioscience, cat. 1254). The K12877-001-R-J1-PDC line was cultured in 6I media, which includes all 6C/Colon 1B media plus 10 ng/mL human FGF-10 (PeproTech, cat. 100-26), 1 ng/mL human FGF-2 (PeproTech, cat. 100-18B), 1 µM prostaglandin E2 (Tocris Bioscience, cat. 2296), […] hydrocortisone (Sigma-Aldrich, cat. H4001), and […] bovine insulin (Sigma-Aldrich, cat. I6634). The K86415-001-R-J1-PDC line was cultured in 6D media, which includes all 6C/Colon 1B media components minus the L-WRN conditioned media. The 485176-168-R4-J1-PDC was cultured in PANC media, which includes all 6C/Colon 1B media plus 100 ng/mL human FGF-10 (PeproTech, cat. 100-26), 500 nM SB-431542 (Selleckchem, cat. S1067), and 10 nM gastrin (Tocris Bioscience, cat. 3006). […]

SMILES: O=C(c1ccc(F)c(F)c1Nc1ccc(I)cc1F)N1CC(O)([C@@H]2CCCCN2)C1 + C#Cc1c(F)ccc2cc(O)cc(-c3ncc4c(N5CC6CCC(C5)N6)nc(OCC56CCCN5CC(F)C6)nc4c3F)c12
- IC50 (second compound 0.0316 µM): 82.6 nM
- IC50 (second compound 0.1 µM): 77.3 nM
- IC50 (second compound 0.316 µM): 73.2 nM
- IC50 (second compound 1 µM): 68.3 nM
- IC50 (second compound 3.16 µM): 15.4 nM
- IC50 (second compound 10 µM): < 3.16 nM
- viability, T/C (second compound 0.0316 µM, first compound 0.00316 µM): 108%
- viability, T/C (second compound 0.0316 µM, first compound 0.01 µM): 105%
- viability, T/C (second compound 0.0316 µM, first compound 0.0316 µM): 70.8%
- viability, T/C (second compound 0.0316 µM, first compound 0.1 µM): 44.1%
- viability, T/C (second compound 0.0316 µM, first compound 0.316 µM): 35.9%
- viability, T/C (second compound 0.0316 µM, first compound 1 µM): 19.1%
- viability, T/C (second compound 0.1 µM, first compound 0.00316 µM): 103%
- viability, T/C (second compound 0.1 µM, first compound 0.01 µM): 103%
- viability, T/C (second compound 0.1 µM, first compound 0.0316 µM): 65.1%
- viability, T/C (second compound 0.1 µM, first compound 0.1 µM): 47.1%
- viability, T/C (second compound 0.1 µM, first compound 0.316 µM): 30.9%
- viability, T/C (second compound 0.1 µM, first compound 1 µM): 21.6%
- viability, T/C (second compound 0.316 µM, first compound 0.00316 µM): 99.8%
- viability, T/C (second compound 0.316 µM, first compound 0.01 µM): 112%
- viability, T/C (second compound 0.316 µM, first compound 0.0316 µM): 72.6%
- viability, T/C (second compound 0.316 µM, first compound 0.1 µM): 42.5%
- viability, T/C (second compound 0.316 µM, first compound 0.316 µM): 31.1%
- viability, T/C (second compound 0.316 µM, first compound 1 µM): 20.4%
- viability, T/C (second compound 1 µM, first compound 0.00316 µM): 91.2%
- viability, T/C (second compound 1 µM, first compound 0.01 µM): 95.8%
- viability, T/C (second compound 1 µM, first compound 0.0316 µM): 60.4%
- viability, T/C (second compound 1 µM, first compound 0.1 µM): 43.8%
- viability, T/C (second compound 1 µM, first compound 0.316 µM): 34.4%
- viability, T/C (second compound 1 µM, first compound 1 µM): 21.1%
- viability, T/C (second compound 3.16 µM, first compound 0.00316 µM): 56.3%
- viability, T/C (second compound 3.16 µM, first compound 0.01 µM): 58.7%
- viability, T/C (second compound 3.16 µM, first compound 0.0316 µM): 42.4%
- viability, T/C (second compound 3.16 µM, first compound 0.1 µM): 40%
- viability, T/C (second compound 3.16 µM, first compound 0.316 µM): 30.3%
- viability, T/C (second compound 3.16 µM, first compound 1 µM): 17%
- viability, T/C (second compound 10 µM, first compound 0.00316 µM): 36.5%
- viability, T/C (second compound 10 µM, first compound 0.01 µM): 38.3%
- viability, T/C (second compound 10 µM, first compound 0.0316 µM): 31.6%
- viability, T/C (second compound 10 µM, first compound 0.1 µM): 31.9%
- viability, T/C (second compound 10 µM, first compound 0.316 µM): 22.1%
- viability, T/C (second compound 10 µM, first compound 1 µM): 12.3%
